Source: ChEMBL document CHEMBL1150032, “-hydroxy- and -ketoester functionalized thrombin inhibitors” (Bioorg Med Chem Lett, 1992)

Tests used:
[1] = Inhibitory concentration required to double thrombin clotting time; assay type: functional, Homo sapiens
Prothrombin [2] = biological target: T1, Prothrombin (Homo sapiens, UniProt P00734); experiment: Inhibitory concentration against thrombin when incubated with the compound for 3 min
Prothrombin [3] = biological target: T1, Prothrombin; experiment: Inhibitory concentration against thrombin when incubated with the compound for 3 min in batch 1
Prothrombin [4] = biological target: T1, Prothrombin; experiment: Inhibitory concentration against thrombin when incubated with the compound for 3 min in batch 2
[5] = Inhibitory concentration required to double thrombin clotting time in batch 2; assay type: functional, Homo sapiens
[6] = Inhibitory concentration required to double thrombin clotting time in batch 1; assay type: functional, Homo sapiens
Prothrombin [7] = biological target: T1, Prothrombin; experiment: Overall Inhibitory constant against thrombin was determined

| IC50 [1] [nM] | IC50 (Prothrombin [2]) [nM] | IC50 (Prothrombin [3]) [nM] | IC50 (Prothrombin [4]) [nM] | IC50 [5] [nM] | IC50 [6] [nM] | Ki (Prothrombin [7]) [nM] | Compound |
| --- | --- | --- | --- | --- | --- | --- | --- |
| 400 | 49 |  |  |  |  |  | NC(N)=NCCC[C@@H](C=O)NC(=O)[C@@H]1CCCN1C(=O)[C@H](N)Cc1ccccc1 |
|  |  | 30500 | 20200 | > 300000 | > 300000 |  | COC(=O)[C@@H](O)[C@H](CCCCN)NC(=O)[C@@H]1CCCN1C(=O)[C@H](N)Cc1ccccc1 |
| 390 | 32 |  |  |  |  | 1.7 | COC(=O)C(O)(OC)C(CCCCN)NC(=O)[C@@H]1CCCN1C(=O)[C@H](N)Cc1ccccc1 (stereo not given in full) |
|  | 48000 |  |  |  |  |  | COC(=O)C(O)[C@H](CCCCN=C(N)N)NC(=O)[C@@H]1CCCN1C(=O)[C@H](N)Cc1ccccc1 (stereo not given in full) |
